From patent US20090082304A1, “Methods of Treating Hematological Malignancies with Nucleoside Analog Drugs” (NORTHWESTERN UNIVERSITY, priority 2004, published 2009) come the findings set out here.

Common to all, as to assay type: cell-based
One test deals with p38 MAPK. As to the kind of experiment: Immunoblot of phospho-p38 MAPK in MM.1 S cells. The conditions noted are these: 10 μM. The procedure: 5×10^6 were cells treated with 10 μM 8-NH2-Ado for the indicated times and harvested. Cell pellets were washed with cold phosphate-buffered saline (PBS; 8.1 g NaCl, 1.14 g Na2HPO4, 0.22 g KCl, and 0.25 g/L KH2PO4) and incubated with lysis buffer (50 mM HEPES, 150 mM NaCl, 1.5 mM MgCl2, 1 mM EDTA pH 8.0, 100 mM NaFI, 10 mM Na Pyrophosphate, 500 μM PMSF, 0.5% Triton X-100, 10% glycerol) at 4° C. for one hour. Lysates were centrifuged at 4° C. for 1 minute at 9000×g, and the supernatants were collected and stored at −20° C. Protein concentration was determined by Bio-Rad protein assay (BioRad Laboratories, Hercules, Calif.). Protein, at a concentration of 30 μg, was mixed with sample buffer (125 mM Tris, pH 6.8, 4% SDS, 20% glycerol, 100 mM Dithiothreitol (DTT), and 0.05% bromophenol blue), and fractionated on a pre-cast 8-16% Tris-Glycine gel (Invitrogen/Novex, Carlsbad, Calif.). Proteins were then transferred to a Polyvinylidene Fluoride (PVDF) membrane (Immobilon-P, Millipore, Bedford, Mass.): Following protein transfer, membranes were blocked with 5% non-fat milk in PBS-T (PBS with 0.1% Tween), incubated with the primary antibody overnight at 4° C. and subsequently with horseradish peroxidase linked secondary antibody (Amersham, Arlington Heights, Ill.). Blots were developed using ECL Plus Chemiluminescent Western Blotting Detection reagent (Amersham, Arlington Heights, Ill.) and the signal was visualized with X-ray film (Hyperfilm, Amersham, Arlington Heights, Ill.). For reprobing purposes, blots were stripped using Restore Western Blot Stripping Buffer from Pierce Biotechnology (Rockford, Ill.). Phospho-MKK3/6 (Ser189/207), phospho-p38 (Thr180/Tyr182), phospho-ATF-2 (Thr69/71), phospho-c-Raf (Ser259), phospho-MEK1/2 (Ser217/221), total MEK1/2, phospho-ERK1/2 (Thr202/Tyr204), total ERK1/2, phospho-p90RSK (Ser380), total RSK, phospho-PDK1 (Ser241), total PDKI, phospho-PTEN (Ser380), total PTEN, phospho-Akt (Ser473), total Akt, phospho-GSK-3β (Ser9), total GSK-3β, phospho-FKHRLI (Thr32)/-FKHR (Thr24), phospho-FKHR (Ser256) primary antibodies were obtained from Cell Signaling Technology (Beverly, Mass.). Total MKK3, total MKK6, total p38, total ATF-2, total c-Raf, total FKHR, total FKHRLI, phospho-JNK and total JNK were purchased from Santa Cruz Biotechnology (Santa Cruz, Calif.). Caspase 3, caspase 9, and PARP antibodies were obtained from Pharmingen (San Diego, Calif.) and anti-MKP1 from Upstate (Lake Placid, N.Y.). Anti-caspase 8 mouse serum was a generous gift of Dr. Marcus Peter (University of Chicago).
MM.1 S cells were exposed to 10 μM 8-NH2-Ado for 0, 0.5, 1, 2, 4 and 6 hours, after which cells were lysed as previously (Example 2). 30 μg of protein was separated by gel electrophoresis, transferred to PVDF membrane, and probed with phosphorylation-specific antibodies to MKK3/6, p38 MAPK, ATF-2, MEK1/2, ERK1/2, p90RSK, JNK1, PDK1, Akt, FKHRL1 and GSK-3β. […] FIGS. 1A, 1B, 1C and 1D provide the results of the blots.
MM. I S cells were treated with 10 μM 8-chloro-adenosine for 0, 0.5, 1, 2, 4 or 6 hours or 10 μM of cytarabine, fludarabine, gemcitabine or 8-amino-adenosine for 4 hours. Cells were lysed as previously described and 30 μg of protein was separated by gel electrophoresis, transferred to PVDF membrane, and probed with phospho-p38 MAPK (Thr180/Tyr182) antibody.
In a parallel approach to test the involvement of cellular phosphatases, we treated MM.1 S cells with varying concentrations of the phosphatase inhibitor okadaic acid in combination with 8-NH2-Ado for 4 hours to assess whether the serine/threonine phosphatases PP2A and PPI are involved.

The test system of the next test is JNK. As to the kind of experiment: Immunoblot of phospho-JNK in MM.1 S cells. The conditions noted are these: 10 μM, 0-6 hours. The procedure: (§1) 5×10^6 were cells treated with 10 μM 8-NH2-Ado for the indicated times and harvested. Cell pellets were washed with cold phosphate-buffered saline (PBS; 8.1 g NaCl, 1.14 g Na2HPO4, 0.22 g KCl, and 0.25 g/L KH2PO4) and incubated with lysis buffer (50 mM HEPES, 150 mM NaCl, 1.5 mM MgCl2, 1 mM EDTA pH 8.0, 100 mM NaFI, 10 mM Na Pyrophosphate, 500 μM PMSF, 0.5% Triton X-100, 10% glycerol) at 4° C. for one hour. Lysates were centrifuged at 4° C. for 1 minute at 9000×g, and the supernatants were collected and stored at −20° C. Protein concentration was determined by Bio-Rad protein assay (BioRad Laboratories, Hercules, Calif.). Protein, at a concentration of 30 μg, was mixed with sample buffer (125 mM Tris, pH 6.8, 4% SDS, 20% glycerol, 100 mM Dithiothreitol (DTT), and 0.05% bromophenol blue), and fractionated on a pre-cast 8-16% Tris-Glycine gel (Invitrogen/Novex, Carlsbad, Calif.). Proteins were then transferred to a Polyvinylidene Fluoride (PVDF) membrane (Immobilon-P, Millipore, Bedford, Mass.): Following protein transfer, membranes were blocked with 5% non-fat milk in PBS-T (PBS with 0.1% Tween), incubated with the primary antibody overnight at 4° C. and subsequently with horseradish peroxidase linked secondary antibody (Amersham, Arlington Heights, Ill.). […]
Background: In western blotting, separated proteins are transferred to a membrane and probed.

A further test relates to FKHRL1. Briefly: Immunoblot of phospho-FKHRL1 in MM.1 S cells. The settings on record: 10 μM. The procedure:
as §1

The next test has as its system caspase 9. Briefly: Caspase 9 activation immunoblot in MM.1 S cells. The settings on record: 10 μM. The procedure:
as §1, with “Calif.).” for “Calif.). Proteins were then transferred to a Polyvinylidene Fluoride (PVDF) membrane (Immobilon-P, Millipore, Bedford, Mass.): Following protein transfer, membranes were blocked with 5% non-fat milk in PBS-T (PBS with 0.1% Tween), incubated with the primary antibody overnight at 4° C. and subsequently with horseradish peroxidase linked secondary antibody (Amersham, Arlington Heights, Ill.).”
MM.1 S cells were exposed to 10 μM 8-NH2-Ado for 0, 0.5, 1, 2, 4 or 6 hours, after which cells were lysed as previously described. […] Total protein levels were also assessed to ensure equal loading and transfer (data not shown). […]

As for `Nc1ncnc2c1nc(N)n2[C@@H]1O[C@H](CO)[C@@H](O)[C@H]1O` [8-NH2-Ado, 8-amino-adenosine], the “phosphorylation of p38” value in the test with p38 MAPK (4 hours) is reported as “dramatic loss of phosphorylation”. In addition, the p38 phosphorylation levels result in the test on p38 MAPK (after 2 hours) was “no appreciable phosphorylation”; in the test on p38 MAPK (by 1 hour), “dramatically reduced”. Besides, the JNK phosphorylation entry with JNK is “unaffected”. Further, the FKHRLI phosphorylation result is recorded as “no appreciable phosphorylation” in the test on FKHRL1 (at 4 and 6 hours); “decreases dramatically” with FKHRL1 (by 2 hours). The “time at which cleaved and activated caspase 9 appears” value with caspase 9 lay within 2 to 4 h.
